# Experimental data: patent US9334259B2, “Aryloxyacetamide compound and pesticide” (Nippon Soda Co., Ltd., priority 2012, dated 2016)
# Test system: acaricide-resistant adult female Aculops pelekassi
# Test: Efficacy test against Aculops pelekassi (mandarin orange leaf)
# Format: in vivo
# Conditions: 125 ppm emulsion sprayed
# Description: Twenty acaricide-resistant adult female Aculops pelekassi acarus were inoculated onto a mandarin orange leaf placed in a Petri dish. Next, an emulsion was prepared having the formula indicated in the aforementioned Preparation example 2. This emulsion was diluted with water to a compound concentration of 125 ppm after which the diluted liquids were sprayed onto the mandarin orange leaf with a rotary spraying tower. The mandarin orange leaf was then placed in a temperature-controlled room at a temperature of 25° C. and a humidity of 65%. The life and death of the adult insects were investigated 3 days after the spraying. The development from eggs laid to adult was investigated 10 days after the spraying.
structure (smiles),measurement,setting,value
CCC(Oc1cc(Br)c(Cl)c(Br)c1)C(=O)NC(C)(C)c1ncccn1 (centres unmarked) [Compound No. 1-14],insect mortality rate after 3 days,3 days after spraying,≥ 90%
same,insect mortality rate after 10 days,10 days after spraying,≥ 90%
